Source: patent US10104891B2 (priority 2014, dated 2018)

Legend:
Format in all cases: in vivo
Plasmopara viticola = assay: Test 3: control effect against grape downy mildew; conditions: control value vs untreated section; for pest or weed control at 4 µg/mL: Plasmopara viticola, 120 h
In short: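 Leaf lesion area, scored 5 days after inoculation and compared with untreated plants, gives the control value. Inoculation used P. viticola zoospores (1.0×10^4 units/ml) with a 16 hr moist incubation at 22° C. It followed by one day a spray of 4 ppm compound (wettable powder in Tween20) onto Neomuscat seedlings.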

Phytophthora infestans = assay: whole plant or invertebrate; conditions: for pest or weed control at 4 µg/mL: Phytophthora infestans, in Solanum lycopersicum, 96 h, read-out: control value (Test 1); for control value (Test 1): tomato late blight, control value vs untreated section
[1] = tested on: Pseudoperonospora cubensis; assay: Test 2: control effect against cucumber downy mildew; conditions: control value vs untreated section; for pest or weed control at 4 µg/mL: Pseudoperonospora cubensis, 120 h
In short: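 Protective test: zoospores (1.0×10^4 units/ml) misted one day after applying a 4 ppm suspension (wettable powder diluted in 1/5000 Tween20) to 2-leaf cucumber, Sagami hanjiro. After 16 hr at 22° C humid incubation, leaf lesion area read at day 5, expressed as control value versus untreated leaves.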

Pythium graminicola = assay: Test 4: control effect against rice damping-off by the Pythium fungus (soil lavage); conditions: 1,000 ppm, 2.5 ml test suspension drenched on contaminated soil, rice (koshihikari)
Procedure: A 10% wettable powder created according to the Pharmaceutical Formulation Example 1 was diluted with a Tween20 solution prepared to a concentration of 1/5000, then the compound of formula [1] was prepared to a concentration of 4 ppm. Further, the compound of formula [1] in Test 4 was adjusted to a concentration of 1,000 ppm.
<Test 4 Test of Control Effect Against Rice Damping-Off by the Pythium Fungus (Soil Lavage)>
Distilled water was added to the flora of Pythium graminicola cultured in bentoglass seed culture and stirred with a mixer, and adjusted the contaminated soil to 5 g of bacteria against 1 kg of soil.
In a cell tray having 31×31 mm^2 per cell, 20 ml of the contaminated soil was filled in each cell, and 3 seeds of rice chaff that has been forced to sprout (Species: koshihikari) were seeded, and 5 ml of soil was added for covering, then 2.5 ml of test suspension was drenched, and the seeds were incubated in a moist chamber adjusted to 28° C. for 72 hr to induce sprouting. Then, in a low temperature room of 5° C., the onset of disease was induced for 2 days, then the disease was nurtured for 14 days in a room of 25° C.
The soil was washed, and the apoptosis strain, growth restrained strain, and a healthy strain were measured and the onset rate was calculated by the following formula. Onset rate=[Σ(onset strain number by level×onset index)/(investigated strain×3)]×100 [Onset Index]
1: Growth restrained strain
Also, the following formula was used to compute the control value from the obtained onset index. control value={1−onset area rate at the section applied the test agent/onset area rate of untreated section}×100 Computational formula of the control value: […]

Structure (SMILES) | pest or weed control at 4 µg/mL (Plasmopara viticola) | pest or weed control at 4 µg/mL (Phytophthora infestans) | pest or weed control at 4 µg/mL [1] | pest or weed control at 1000 ppm (Pythium graminicola) | control value (Test 3) (Plasmopara viticola) | control value (Test 1) (Phytophthora infestans) | control value (Test 2) [1]
Cc1cc(C(F)(F)F)nn1CC(=O)N1CCC(c2nc(C3OCc4c(F)ccc(F)c4CO3)cs2)CC1 [Compound 1-3, 4-[4-(6,9-difluoro-1,5-dihydro-3H-2,4-benzodioxepin-3-yl)-2-thiazolyl]-1-[2-[5-methyl-3-(trifluoromethyl)-1H-pyrazole-1-yl]acetyl]piperidine] | 100% | 100% | 100% | ≥ 90% | – | – | –
Cc1cc(C(F)(F)F)nn1CC(=O)N1CCC(c2nc(C3OCc4cccc(OS(C)(=O)=O)c4CO3)cs2)CC1 (centres unmarked) [Compound 1-6, 4-[4-(6-methylsulfonyloxy-1,5-dihydro-3H-2,4-benzodioxepin-3-yl)-2-thiazolyl]-1-[2-[5-methyl-3-(trifluoromethyl)-1H-pyrazole-1-yl]acetyl]piperidine] | 100% | 100% | 100% | ≥ 90% | – | – | –
Cc1ccc(C)c(CC(=O)N2CCC(c3nc(C4OCc5c(OS(C)(=O)=O)cc(C)c(C)c5CO4)cs3)CC2)c1 (centres unmarked) [Compound 2-31, 4-[4-(6,7-dimethyl-9-methylsulfonyloxy-1,5-dihydro-3H-2,4-benzodioxepin-3-yl)-2-thiazolyl]-1-[2-(2,5-dimethylphenyl)acetyl]piperidine] | 100% | 0% | 100% | – | – | – | –
Cc1cc(OS(C)(=O)=O)c2c(c1C)COC(c1csc(C3CCN(C(=O)Cc4cc(Cl)ccc4Cl)CC3)n1)OC2 (centres unmarked) [Compound 2-32] | – | – | – | – | 100 | 100 | 100
Cc1ccc(C)c(CC(=O)N2CCC(c3nc(C4OCc5c(Br)ccc(OS(C)(=O)=O)c5CO4)cs3)CC2)c1 (centres unmarked) [Compound 2-33] | – | – | – | – | 100 | 20 | 100
CS(=O)(=O)Oc1ccc([N+](=O)[O-])c2c1COC(c1csc(C3CCN(C(=O)Cc4cc(Cl)ccc4Cl)CC3)n1)OC2 (centres unmarked) [Compound 2-34] | – | – | – | – | 100 | 90 | 100
CS(=O)(=O)Oc1ccc(Br)c2c1COC(c1csc(C3CCN(C(=O)Cc4cc(Cl)ccc4Cl)CC3)n1)OC2 (centres unmarked) [Compound 2-35] | – | – | – | – | 100 | 100 | 100
O=C(Cc1cc(Cl)ccc1Cl)N1CCC(c2nc(C3OCc4cccc([N+](=O)[O-])c4CO3)cs2)CC1 (centres unmarked) [Compound 2-36] | – | – | – | – | 100 | 100 | 100
Cc1ccc(C)c(CC(=O)N2CCC(c3nc(C4OCc5c(OS(C)(=O)=O)ccc([N+](=O)[O-])c5CO4)cs3)CC2)c1 (centres unmarked) [Compound 2-37] | – | – | – | – | 100 | 90 | 100
Cc1ccc(C)c(CC(=O)N2CCC(c3nc(C4OCc5c(Cl)ccc(OS(C)(=O)=O)c5CO4)cs3)CC2)c1 (centres unmarked) [Compound 2-38] | – | – | – | – | 100 | 100 | 100
Cc1ccc(C)c(CC(=O)N2CCC(c3nc(C4OCc5c(I)ccc(OS(C)(=O)=O)c5CO4)cs3)CC2)c1 (centres unmarked) [Compound 2-40] | – | – | – | – | 100 | 70 | 100
CS(=O)(=O)Oc1ccc(Cl)c2c1COC(c1csc(C3CCN(C(=O)Cc4cc(Cl)ccc4Cl)CC3)n1)OC2 (centres unmarked) [Compound 2-41] | – | – | – | – | 100 | 100 | 100
Cc1ccc(C)c(CC(=O)N2CCC(c3nc(C4OCc5ccc(F)c(OS(C)(=O)=O)c5CO4)cs3)CC2)c1 (centres unmarked) [Compound 2-42] | – | – | – | – | 100 | 90 | 100
CS(=O)(=O)Oc1c(F)ccc2c1COC(c1csc(C3CCN(C(=O)Cc4cc(Cl)ccc4Cl)CC3)n1)OC2 (centres unmarked) [Compound 2-43, 4-[4-(7-fluoro-6-methylsulfonyloxy-1,5-dihydro-3H-2,4-benzodioxepin-3-yl)-2-thiazolyl]-1-[2-(2,5-dichlorophenyl)acetyl]piperidine] | 100% | 100% | 100% | – | – | – | –
CS(=O)(=O)Oc1ccc(I)c2c1COC(c1csc(C3CCN(C(=O)Cc4cc(Cl)ccc4Cl)CC3)n1)OC2 (centres unmarked) [Compound 2-44, 4-[4-(6-iodo-9-methylsulfonyloxy-1,5-dihydro-3H-2,4-benzodioxepin-3-yl)-2-thiazolyl]-1-[2-(2,5-dichlorophenyl)acetyl]piperidine] | 100% | 90% | 100% | – | – | – | –
COc1ccc(C)c2c1COC(c1csc(C3CCN(C(=O)Cc4cc(Cl)ccc4Cl)CC3)n1)OC2 (centres unmarked) [Compound 2-46] | – | – | – | – | 100 | 100 | 100
Cc1ccc(C)c(CC(=O)N2CCC(c3nc(C4OCc5cccc(OC(F)F)c5CO4)cs3)CC2)c1 (centres unmarked) [Compound 2-47] | – | – | – | – | 100 | 100 | 100
CS(=O)(=O)Oc1ccc2c(c1)COC(c1csc(C3CCN(C(=O)Cc4cc(Cl)ccc4Cl)CC3)n1)OC2 (centres unmarked) [Compound 2-49] | – | – | – | – | 100 | 100 | 0
COc1cccc2c1COC(c1csc(C3CCN(C(=O)Cc4cc(C)ccc4C)CC3)n1)OC2 (centres unmarked) [Compound 2-50] | – | – | – | – | 100 | 100 | 100
COc1cccc2c1COC(c1csc(C3CCN(C(=O)Cc4cc(Cl)ccc4Cl)CC3)n1)OC2 (centres unmarked) [Compound 2-51] | – | – | – | – | 100 | 100 | 100
Cc1ccc(C)c(CC(=O)N2CCC(c3nc(C4OCc5c(OS(C)(=O)=O)ccc(OS(C)(=O)=O)c5CO4)cs3)CC2)c1 [Compound 2-53] | – | – | – | – | 100 | 100 | 100
Cc1ccc(C)c(CC(=O)N2CCN(c3nc(C4OCc5cccc(OS(C)(=O)=O)c5CO4)cs3)CC2)c1 (centres unmarked) [Compound 2-54] | – | – | – | – | 100 | 90 | 90
CC(C)=NOCC(=O)N1CCC(c2nc(C3OCc4cccc(OS(C)(=O)=O)c4CO3)cs2)CC1 (centres unmarked) [Compound 3-1, 4-[4-(6-methylsulfonyloxy-1,5-dihydro-3H-2,4-benzodioxepin-3-yl)-2-thiazolyl]-1-[2-[(propane-2-ylideneamino)oxy]acetyl]piperidine] | 100% | 100% | 100% | – | – | – | –
O=C(CON=CC(F)(F)F)N1CCC(c2nc(C3OCc4cccc(F)c4CO3)cs2)CC1 (centres unmarked) [Compound 3-2] | – | – | – | – | 100 | 100 | 100
CS(=O)(=O)Oc1ccc(F)c2c1COC(c1csc(C3CCN(C(=O)CON=CC(F)(F)F)CC3)n1)OC2 (centres unmarked) [Compound 3-3] | – | – | – | – | 100 | 100 | 100
O=C(CON=CC(F)(F)F)N1CCC(c2nc(C3OCc4c(F)ccc(F)c4CO3)cs2)CC1 [Compound 3-4] | – | – | – | – | 100 | 100 | 100
COc1ccc(OS(C)(=O)=O)c2c1COC(c1csc(C3CCN(C(=O)CON=CC(F)(F)F)CC3)n1)OC2 (centres unmarked) [Compound 3-5] | – | – | – | – | 100 | 100 | 100
CS(=O)(=O)Oc1cccc2c1COC(c1csc(C3CCN(C(=O)CON=CC(F)(F)F)CC3)n1)OC2 (centres unmarked) [Compound 3-6] | – | – | – | – | 100 | 100 | 100
CO/C(=N\c1cc(C)ccc1C)N1CCC(c2nc(C3OCc4cccc(OS(C)(=O)=O)c4CO3)cs2)CC1 (centres unmarked) [Compound 4-1, 4-[4-(6-methylsulfonyloxy-1,5-dihydro-3H-2,4-benzodioxepin-3-yl)-2-thiazolyl]-1-[(Z)-[(2,5-dimethylphenyl)imino](methoxy)methyl]piperidine] | 100% | 100% | 100% | – | – | – | –
